This passage reports IC50 results from patent US20250163104A1, “MACROCYCLIC IMMUNOMODULATORS” (priority 2021, published 2025).

Where a SMILES comes first, the peptide text is derived from it. Bridges are numbered along the chain shown (N, C = ends). [ ]: non-standard residue; d: D form. The star is where a group is joined. ξ: configuration not given here. Phe(4-COOH) = N[C@@H](Cc1ccc(C(=O)O)cc1)C(=O)O; Bip = N[C@@H](Cc1ccc(-c2ccccc2)cc1)C(=O)O; Phe(3-Me) = Cc1cccc(C[C@H](N)C(=O)O)c1; Phe(4-F) = N[C@@H](Cc1ccc(F)cc1)C(=O)O; Val(3-OH) = CC(C)(O)[C@H](N)C(=O)O; 4Pal = N[C@@H](Cc1ccncc1)C(=O)O; Cha = N[C@@H](CC1CCCCC1)C(=O)O; Cit = NC(=O)NCCC[C@H](N)C(=O)O; Ile(3ξ) = CCC(C)[C@H](N)C(=O)O; dCha = N[C@H](CC1CCCCC1)C(=O)O; Thr(3ξ) = CC(O)[C@H](N)C(=O)O; Carboxymethyl = O=C(O)C*; Nle = CCCC[C@H](N)C(=O)O; Orn = NCCC[C@H](N)C(=O)O; Pra = C#CC[C@H](N)C(=O)O; Dab = NCC[C@H](N)C(=O)O; Dap = NC[C@H](N)C(=O)O

This assay deals with T1, human PD-1 / PD-L1-Ig binding on Jurkat cell line over-expressing human PD-1 (Jurkat-PD-1) (Homo sapiens, UniProt Q15116).
T1 construct: expressed in transfected cells; host or cells: Jurkat
T1 sequence (Q15116 25-288): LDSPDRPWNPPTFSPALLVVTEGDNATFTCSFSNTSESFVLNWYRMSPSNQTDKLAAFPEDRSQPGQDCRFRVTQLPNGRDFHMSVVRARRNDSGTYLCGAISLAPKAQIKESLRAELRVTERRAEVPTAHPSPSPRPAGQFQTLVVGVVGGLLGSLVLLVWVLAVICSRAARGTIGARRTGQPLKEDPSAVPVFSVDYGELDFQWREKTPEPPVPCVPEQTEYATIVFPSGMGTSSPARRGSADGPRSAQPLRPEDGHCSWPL
Put plainly: Jurkat-PD-1 Cell Binding High-Content Screening Assay (CBA). In kind it is cell-based. The note with it: Jurkat-PD-1 cells, PE-labeled PD-L1-Ig 20 nM final; read-out: Jurkat HPD1_PDL1 IC50. In short, it runs like this:
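Binding of fluorescent PD-L1-Ig (phycoerythrin linked via the Ig tag, 20 nM final) to PD-1-overexpressing Jurkat cells was imaged after a 2 h, 37° C compound pretreatment and 1 hour ligand incubation.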

Consider `CCCC[C@@H]1NC(=O)[C@H](CCN)NC(=O)[C@@H](CC(C)C)NC(=O)[C@H](CCCN)NC(=O)[C@H](C(C)C)NC(=O)[C@H](Cc2ccc(-c3ccccc3)cc2)NC(=O)[C@H](C(C)C)NC(=O)[C@H](Cc2c[nH]c3ccccc23)NC(=O)[C@H](CC(=O)O)NC(=O)[C@H](Cc2ccc(O)cc2)NC(=O)[C@H](CC(N)=O)NC(=O)CSC[C@@H](C(=O)N[C@@H](C)C(N)=O)NC(=O)[C@H]([C@@H](C)O)NC(=O)[C@H](C(C)C)NC1=O` [Compound 1171] ({CH2CO}-NYDWV[Bip]V[Orn][dL][Dab][Nle]VTCA-NH2; thioether N-14), for which the concentration for half-maximal inhibition (IC50) came out at 0.0264 µM.

For `COc1cccc(C[C@@H]2NC(=O)[C@H](CC(=O)O)NC(=O)[C@H](Cc3ccc(OCC(=O)O)cc3)NC(=O)[C@H](Cc3ccncc3)NC(=O)CSC[C@@H](C(=O)N[C@@H](C)C(N)=O)NC(=O)[C@H]([C@@H](C)O)NC(=O)[C@H](C(C)C)NC(=O)[C@H](CC3CCCCC3)NC(=O)[C@H](CCN)NC(=O)[C@@H](CC(C)C)NC(=O)[C@H](CCCN)NC(=O)[C@H](CCC(=O)O)NC(=O)[C@H](Cc3ccc(-c4ccccc4)cc3)NC(=O)[C@H](C(C)C)NC2=O)c1` [Compound 1544], the IC50 amounted to 0.0105 µM.

As for `C#CC[C@H](NC(=O)[C@H](CCN)NC(=O)[C@@H]1CSCC(=O)N[C@@H](CN)C(=O)N[C@@H](Cc2ccc(C(=O)O)cc2)C(=O)N[C@@H](CC(=O)O)C(=O)N[C@@H](Cc2cccc(C)c2)C(=O)N[C@@H](Cc2ccc(C(=O)O)cc2)C(=O)N[C@@H](Cc2ccc(-c3ccccc3)cc2)C(=O)N[C@@H](Cc2ccc(C(=O)O)cc2)C(=O)N[C@@H](CCCN)C(=O)N[C@H](CC(C)C)C(=O)N[C@@H](CCN)C(=O)N[C@@H](CC2CCCCC2)C(=O)N[C@@H](C(C)(C)O)C(=O)N[C@@H](CCCN)C(=O)N1)C(N)=O` [Compound 1856] ({CH2CO}-[Dap][Phe(4-COOH)]D[Phe(3-Me)][Phe(4-COOH)][Bip][Phe(4-COOH)][Orn][dL][Dab][Cha][Val(3-OH)][Orn]C[Dab][Pra]-NH2; thioether N-14), the IC50 was 0.006 µM.

Turning to `CCC(C)[C@@H]1NC(=O)[C@H](Cc2ccc(-c3ccccc3)cc2)NC(=O)[C@H](C(C)C)NC(=O)[C@H](Cc2cccc(C)c2)NC(=O)[C@H](CC(=O)O)NC(=O)[C@H](Cc2ccc(C(=O)O)cc2)NC(=O)[C@H](Cc2ccncc2)NC(=O)CSC[C@@H](C(N)=O)NC(=O)[C@H](CC(=O)O)NC(=O)[C@H](C(C)C)NC(=O)[C@H](CC2CCCCC2)NC(=O)[C@H](CCN)NC(=O)[C@@H](CC(C)C)NC(=O)[C@H](CCCN)NC1=O` (stereo partly drawn) [Compound 2278] ({CH2CO}-[4Pal][Phe(4-COOH)]D[Phe(3-Me)]V[Bip][Ile(3ξ)][Orn][dL][Dab][Cha]VDC-NH2; thioether N-14), the IC50 turned out to be 0.0376 µM.

As for `Cc1cccc(C[C@@H]2NC(=O)[C@H](CC(=O)O)NC(=O)[C@H](Cc3ccc(C(=O)O)cc3)NC(=O)[C@H](Cc3ccncc3)NC(=O)CSC[C@@H](C(N)=O)NC(=O)[C@H](CCCN)NC(=O)[C@H](C(C)C)NC(=O)[C@H](CC3CCCCC3)NC(=O)[C@H](CCN)NC(=O)[C@@H](CC(C)C)NC(=O)[C@H](CCCN)NC(=O)[C@H](CCCNC(N)=O)NC(=O)[C@H](Cc3ccc(-c4ccccc4)cc3)NC(=O)[C@H](C(C)C)NC2=O)c1` [Compound 2265] ({CH2CO}-[4Pal][Phe(4-COOH)]D[Phe(3-Me)]V[Bip][Cit][Orn][dL][Dab][Cha]V[Orn]C-NH2; thioether N-14), the IC50 worked out at 0.0128 µM.

On to `Cc1cccc(C[C@@H]2NC(=O)[C@H](CC(=O)O)NC(=O)[C@H](Cc3ccc(OCC(=O)O)cc3)NC(=O)[C@H](C(C)O)NC(=O)CSC[C@@H](C(=O)N[C@H](CC(N)=O)C(N)=O)NC(=O)[C@H](C(C)O)NC(=O)[C@H](C(C)C)NC(=O)[C@H](CC3CCCCC3)NC(=O)[C@H](CCN)NC(=O)[C@@H](CC(C)C)NC(=O)[C@H](CCCN)NC(=O)[C@H](Cc3ccc(OCC(=O)O)cc3)NC(=O)[C@H](Cc3ccc(-c4ccccc4)cc3)NC(=O)[C@H](Cc3ccc(OCC(=O)O)cc3)NC2=O)c1` (stereo partly drawn) [Compound 2640] ({CH2CO}-[Thr(3ξ)]Y(Carboxymethyl)D[Phe(3-Me)]Y(Carboxymethyl)[Bip]Y(Carboxymethyl)[Orn][dL][Dab][Cha]V[Thr(3ξ)]C[dN]-NH2; thioether N-14), for which the IC50 came out at 0.035 µM.

Take `CC(C)C[C@@H]1NC(=O)[C@H](CCCNC(=N)N)NC(=O)[C@@H](CC(C)C)NC(=O)[C@H](CN)NC(=O)[C@H](CCCNC(=N)N)NC(=O)[C@H](Cc2ccc(-c3ccccc3)cc2)NC(=O)[C@H](C(C)C)NC(=O)[C@H](Cc2c[nH]c3ccccc23)NC(=O)[C@H](CC(=O)O)NC(=O)[C@H](Cc2ccc(O)cc2)NC(=O)[C@H](CC(N)=O)NC(=O)CSC[C@@H](C(=O)N[C@@H](C)C(N)=O)NC(=O)[C@H]([C@@H](C)O)NC(=O)[C@H](C(C)C)NC1=O` [Compound 1010] ({CH2CO}-NYDWV[Bip]R[Dap][dL]RLVTCA-NH2; thioether N-14): the IC50 was 0.0996 µM.

Consider `CC[C@H](C)[C@@H]1NC(=O)[C@H](Cc2ccc(-c3ccccc3)cc2)NC(=O)[C@H](C(C)C)NC(=O)[C@H](Cc2c[nH]c3ccccc23)NC(=O)[C@H](CC(=O)O)NC(=O)[C@H](Cc2ccc(O)cc2)NC(=O)[C@H](CC(N)=O)NC(=O)CSC[C@@H](C(=O)N[C@@H](C)C(N)=O)NC(=O)[C@H]([C@@H](C)O)NC(=O)[C@H](C(C)C)NC(=O)[C@H](CC2CCCCC2)NC(=O)[C@H](CCCNC(=N)N)NC(=O)[C@@H](CC(C)C)NC(=O)[C@H](CCCN)NC1=O` [Compound 1147] ({CH2CO}-NYDWV[Bip]I[Orn][dL]R[Cha]VTCA-NH2; thioether N-14), for which the IC50 worked out at 0.0227 µM.

Take `CC(C)C[C@H]1NC(=O)[C@H](CCCN)NC(=O)[C@H](C(C)C)NC(=O)[C@H](Cc2ccc(-c3ccccc3)cc2)NC(=O)[C@H](C(C)C)NC(=O)[C@H](Cc2c[nH]c3ccccc23)NC(=O)[C@H](CC(=O)O)NC(=O)[C@H](Cc2ccc(O)cc2)NC(=O)[C@H](CC#N)NC(=O)CSC[C@@H](C(=O)N[C@@H](C)C(N)=O)NC(=O)[C@H](C(C)O)NC(=O)[C@H](C(C)C)NC(=O)[C@H](CC2CCCCC2)NC(=O)[C@H](CCN)NC1=O` (some centres unmarked) [Compound 2536]: the IC50 was found to be 0.0109 µM.

In the case of `CC(C)[C@@H]1NC(=O)[C@H](Cc2c[nH]c3ccccc23)NC(=O)[C@H](CC(=O)O)NC(=O)[C@H](Cc2ccc(C(=O)O)cc2)NC(=O)[C@H](Cc2ccncc2)NC(=O)CSC[C@@H](C(=O)N[C@@H](C)C(N)=O)NC(=O)[C@H]([C@@H](C)O)NC(=O)[C@H](C(C)C)NC(=O)[C@H](CC2CCCCC2)NC(=O)[C@H](CCN)NC(=O)[C@@H](CC2CCCCC2)NC(=O)[C@H](CCCN)NC(=O)[C@H](CCC(=O)O)NC(=O)[C@H](Cc2ccc(-c3ccccc3)cc2)NC1=O` [Compound 1439] ({CH2CO}-[4Pal][Phe(4-COOH)]DWV[Bip]E[Orn][dCha][Dab][Cha]VTCA-NH2; thioether N-14), the IC50 was 0.0055 µM.

In the case of `CC(C)C[C@H]1NC(=O)[C@H](CCCN)NC(=O)[C@H](CCCNC(N)=O)NC(=O)[C@H](Cc2ccc(-c3ccccc3)cc2)NC(=O)[C@H](C(C)C)NC(=O)[C@H](Cc2c[nH]c3ccccc23)NC(=O)[C@H](CC(=O)O)NC(=O)[C@H](Cc2ccc(F)cc2)NC(=O)[C@H](CN)NC(=O)CSC[C@@H](C(=O)N[C@@H](C)C(N)=O)NC(=O)[C@H]([C@@H](C)O)NC(=O)[C@H](C(C)C)NC(=O)[C@H](CC2CCCCC2)NC(=O)[C@H](CCN)NC1=O` [Compound 2103] ({CH2CO}-[Dap][Phe(4-F)]DWV[Bip][Cit][Orn][dL][Dab][Cha]VTCA-NH2; thioether N-14), the IC50 turned out to be 0.0159 µM.

Broadly, the IC50 is the concentration that gives 50% inhibition.
